Like-named read-outs stand apart in the source and are kept apart here. Starred links: 1 amine or outer side, 2 acyl side, 3 side chain; linkers in the order of their positions; H or OH if unused. Non-standard residues stand in square brackets, D forms with d. Residues, ends and D or L forms follow the SMILES beside them. Groups on a side chain read outwards from the residue. *: point of attachment. C20 diacid = O=C(O)CCCCCCCCCCCCCCCCCCC(=O)*; γGlu = O=C(O)[C@H](CCC(=O)[*:2])N[*:1]; εLys = N[C@@H](CCCCN[*:1])C(=O)[*:2]; Trx = NC[C@H]1CC[C@H](C(=O)O)CC1; Aib = CC(C)(N)C(=O)O
Experiments:
[1] = Pharmacokinetic study in minipigs (terminal half-life after i.v. administration); type: in vivo; conditions: female, Göttingen, minipig, iv
Procedure: The purpose of this example is to determine the half-life in vivo of the derivatives of the present invention after i.v. administration to minipigs, i.e. the prolongation of their time in the body and thereby their time of action. This is done in a pharmacokinetic (PK) study, where the terminal half-life of the derivative in question is determined. By terminal half-life is generally meant the period of time it takes to […] certain plasma concentration, measured after the initial distribution phase. Female Göttingen minipigs were obtained from Ellegaard Göttingen Minipigs (Dalmose, Denmark) approximately 7-14 months of age and weighing from approximately 16-35 kg were used in the studies. The minipigs were housed individually and fed restrictedly once daily with SDS minipig diet (Special Diets Services, Essex, UK). After at 3 weeks of acclimatisation two permanent central venous catheters were implanted in vena cava caudalis in each animal. The animals were allowed 1 week recovery after the surgery, and were then used for repeated pharmacokinetic studies with a suitable wash-out period between successive derivative dosing. The animals were fasted for approximately 18 hours before dosing and from 0 to 4 hours after dosing, but had adlibitum access to water during the whole period. […] Blood samples (for example 0.8 mL) were collected in 8 mM EDTA buffer and then centrifuged at 4° C. and 1942 g for 10 minutes. Plasma was pipetted into Micronic tubes on dry ice and kept at -20° C. until analysed for plasma concentration of the compounds using ELISA, or a similar antibody-based assay, or LCMS. […] (Pharsight Inc., Mountain View, CA, USA), and the resulting terminal half-lives (harmonic mean) determined.

mouse GIP receptor = biological target: T1, mouse GIP receptor (Mus musculus, UniProt Q0P543); experiment: cell-based
T1 sequence (Q0P543 19-460): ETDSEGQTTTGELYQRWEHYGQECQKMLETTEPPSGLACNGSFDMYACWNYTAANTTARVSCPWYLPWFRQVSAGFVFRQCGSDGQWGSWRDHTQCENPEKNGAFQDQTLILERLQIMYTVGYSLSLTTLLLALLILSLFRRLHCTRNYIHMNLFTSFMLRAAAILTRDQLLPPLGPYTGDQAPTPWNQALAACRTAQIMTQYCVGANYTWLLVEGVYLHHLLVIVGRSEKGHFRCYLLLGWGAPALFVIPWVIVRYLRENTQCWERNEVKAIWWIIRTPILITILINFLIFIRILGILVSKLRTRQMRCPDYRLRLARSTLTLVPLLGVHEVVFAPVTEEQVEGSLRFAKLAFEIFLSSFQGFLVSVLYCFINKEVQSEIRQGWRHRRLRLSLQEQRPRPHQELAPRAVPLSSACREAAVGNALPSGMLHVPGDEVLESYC

mouse GLP-1 receptor = biological target: T2, mouse GLP-1 receptor (Mus musculus, UniProt O35659)
T2 sequence (O35659 22-463): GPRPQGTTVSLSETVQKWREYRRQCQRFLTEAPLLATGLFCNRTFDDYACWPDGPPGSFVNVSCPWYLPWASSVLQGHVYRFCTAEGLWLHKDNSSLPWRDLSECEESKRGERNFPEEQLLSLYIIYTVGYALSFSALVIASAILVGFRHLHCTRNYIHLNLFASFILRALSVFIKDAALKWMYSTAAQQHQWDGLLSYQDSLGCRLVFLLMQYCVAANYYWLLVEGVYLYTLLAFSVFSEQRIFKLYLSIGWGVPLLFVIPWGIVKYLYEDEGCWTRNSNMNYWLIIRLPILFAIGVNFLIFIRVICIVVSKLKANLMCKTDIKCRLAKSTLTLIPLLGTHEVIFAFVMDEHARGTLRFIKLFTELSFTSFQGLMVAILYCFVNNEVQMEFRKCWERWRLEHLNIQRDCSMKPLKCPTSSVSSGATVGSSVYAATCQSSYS
Procedure: (§1) The in vitro functional potency is the measure of target receptor activation in a whole cell assay.
(§2) In vitro functional potency was determined by measuring the response of the target receptor in a reporter gene assay in individual cell lines. […] When the respective receptor is activated, it results in the production of cAMP, which in turn results in expression of the luciferase protein. When assay incubation is completed, luciferase substrate (luciferin) is added resulting in the enzymatic conversion of luciferin to oxyluciferin and producing bioluminescence. The luminescence is measured as the readout for the assay.
(§3) The cells lines used in these assays were BHK cells with BHKTS13 as a parent cell line. The cell lines were derived from a clone containing the CRE luciferase element and were established by further transfection with the respective receptor to obtain the relevant cell line.
(§4) The cells were cultured at 37° C. with 5% CO2 in Cell Culture Medium. They were aliquoted and stored in liquid nitrogen. The cells were kept in continuous culture and were seeded out the day before each assay.
(§5) GLP-1R and GcgR Cell Culture Medium consisted of DMEM medium with 10% FBS, 500 μg/mL G418, and 300 μg/mL hygromycin. GIPR Cell Culture Medium consisted of DMEM medium with 10% FBS, 400 μg/mL G418, and 300 μg/mL hygromycin. Assay Buffer consisted of DMEM w/o phenol red, 10 mM Hepes, 1×Glutamax, 1% ovalbumin, and 0.1% Pluronic F-68 with the addition of HSA at twice the final assay concentration.
(§6) • 1) Cells were plated at 5000 cells/well and incubated overnight in the assay plate. • 2) Cells were washed once in DPBS. • 3) Stocks of the test compounds and reference compounds in concentrations ranging from 100-300 μM were diluted 1:150 in Assay Buffer. Compounds were then diluted 1:10 in column 1 of a 96 deep well dilution plate and then carried across the row creating a 3.5 fold, 12 point dilution curve. • 4) Assay Buffer (50 μl aliquot) with or without HSA was added to each well in the assay plate. • 5) A 50 μl aliquot of compound or blank was transferred from the dilution plate to the assay plate containing the Assay Buffer with or without HSA. • 6) The assay plate was incubated for 3 h in a 5% CO2 incubator at 37° C. 7) The cells were washed once with DPBS. • 8) A 100 μl aliquot of DPBS was added to each well of the assay plate. • 9) A 100 μl aliquot of steadylite plus reagent (light sensitive) was added to each well of the assay plate. • 10) Each assay plate was covered with aluminum foil to protect it from light and shaken at 250 RPM for 30 min at room temperature. • 11) Each assay plate was read in a microtiter plate reader.
(§7) The data from the microtiter plate reader was first regressed in an Excel in order to calculate the x-axis, log scale concentrations based on the individual test compound's stock concentration and the dilutions of the assay. […] The software performs a non-linear regression (log(agonist) vs response). A minimum of two replicates was measured for each sample. The reported values are averages of the replicates.

human GLP-1 receptor = human GLP-1 receptor (Homo sapiens, UniProt P43220); experiment: cell-based; conditions: hGLP-1R
Sequence of human GLP-1 receptor (P43220 24-463): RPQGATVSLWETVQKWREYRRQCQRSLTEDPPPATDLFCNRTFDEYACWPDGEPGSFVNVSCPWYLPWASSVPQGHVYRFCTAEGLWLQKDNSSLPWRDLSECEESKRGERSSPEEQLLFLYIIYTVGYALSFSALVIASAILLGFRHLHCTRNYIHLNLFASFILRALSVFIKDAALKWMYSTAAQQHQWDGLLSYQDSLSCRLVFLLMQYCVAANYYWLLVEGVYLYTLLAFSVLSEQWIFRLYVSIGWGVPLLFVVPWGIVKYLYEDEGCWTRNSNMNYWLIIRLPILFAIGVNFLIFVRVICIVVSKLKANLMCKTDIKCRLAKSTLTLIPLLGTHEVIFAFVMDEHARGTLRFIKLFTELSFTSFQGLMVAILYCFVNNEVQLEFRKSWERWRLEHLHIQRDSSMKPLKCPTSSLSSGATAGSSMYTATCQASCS
Procedure: as §1, §2, §3, §4, §5, §6, §7

human glucagon receptor = human glucagon receptor (Homo sapiens, UniProt P47871); experiment: cell-based
Sequence of human glucagon receptor (P47871 26-477): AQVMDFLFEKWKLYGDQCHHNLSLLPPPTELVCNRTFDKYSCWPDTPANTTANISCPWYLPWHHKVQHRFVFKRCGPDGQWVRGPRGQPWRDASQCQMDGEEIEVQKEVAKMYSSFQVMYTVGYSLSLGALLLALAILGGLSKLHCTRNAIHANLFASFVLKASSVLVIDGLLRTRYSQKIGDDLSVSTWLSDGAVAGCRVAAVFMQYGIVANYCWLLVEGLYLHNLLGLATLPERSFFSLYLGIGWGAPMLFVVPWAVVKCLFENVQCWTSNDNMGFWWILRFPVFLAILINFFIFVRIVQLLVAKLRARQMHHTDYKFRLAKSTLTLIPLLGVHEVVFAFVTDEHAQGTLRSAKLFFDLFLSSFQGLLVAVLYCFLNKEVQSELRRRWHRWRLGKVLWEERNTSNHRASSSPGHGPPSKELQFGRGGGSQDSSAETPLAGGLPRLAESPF
Procedure: as §1, §2, §3, §4, §5, §6, §7

[2] = in vivo, minipigs, i.v. administration, harmonic mean, read-out: Terminal half-life t1/2 (converted)

SMILES	half-life [1, 2] [days]	EC50 (mouse GIP receptor) [nM]	EC50 (mouse GLP-1 receptor) [pM]	EC50 (human GLP-1 receptor; CRE Luc 0% HSA EC50, 0% HSA) [nM]	EC50 (human GLP-1 receptor; CRE Luc 1% HSA EC50, 1% HSA) [nM]	EC50 (human glucagon receptor) [nM]	half-life ([1]; in vivo) [days]	half-life ([1]; plasma, minipigs, i.v. administration, harmonic mean, read-out: Terminal half-life t1/2 (converted)) [days]
CC[C@H](C)[C@H](NC(=O)[C@H](CO)NC(=O)[C@H](Cc1ccc(O)cc1)NC(=O)[C@H](CC(=O)O)NC(=O)[C@H](CO)NC(=O)[C@@H](NC(=O)[C@H](Cc1ccccc1)NC(=O)[C@@H](NC(=O)CNC(=O)[C@H](CCC(=O)O)NC(=O)C(C)(C)NC(=O)[C@@H](N)Cc1ccc(O)cc1)[C@@H](C)O)[C@@H](C)O)C(=O)N[C@@H](Cc1ccc(O)cc1)C(=O)N[C@@H](CC(C)C)C(=O)N[C@@H](CCC(=O)O)C(=O)N[C@@H](CCC(=O)O)C(=O)N[C@@H](CCC(N)=O)C(=O)N[C@@H](C)C(=O)N[C@@H](C)C(=O)NC(C)(C)C(=O)N[C@@H](CCCCNC(=O)[C@@H](N)CCCCNC(=O)[C@@H](N)CCCCNC(=O)CC[C@H](NC(=O)[C@H]1CC[C@H](CNC(=O)CCCCCCCCCCCCCCCCCCC(=O)O)CC1)C(=O)O)C(=O)N[C@@H](Cc1ccccc1)C(=O)N[C@H](C(=O)N[C@@H](CC(N)=O)C(=O)N[C@@H](Cc1c[nH]c2ccccc12)C(=O)N[C@@H](CC(C)C)C(=O)N[C@@H](CC(C)C)C(=O)N[C@@H](C)C(=O)NCC(=O)NCC(=O)N1CCC[C@H]1C(=O)N[C@@H](CO)C(=O)N[C@@H](CO)C(=O)NCC(=O)N[C@@H](C)C(=O)N1CCC[C@H]1C(=O)N1CCC[C@H]1C(=O)N1CCC[C@H]1C(=O)N[C@@H](CO)C(N)=O)C(C)C [Compound 19] (H-Y[Aib]EGTFTSDYSIYLEEQAA[Aib]K([εLys-εLys-γGlu-Trx-C20 diacid])FVNWLLAGGPSSGAPPPS-NH2; N-terminus assumed)	4.67	0.134	5.5	0.0046	0.297	> 10	–	–
CC[C@H](C)[C@H](NC(=O)[C@H](CO)NC(=O)[C@H](Cc1ccc(O)cc1)NC(=O)[C@H](CC(=O)O)NC(=O)[C@H](CO)NC(=O)[C@@H](NC(=O)[C@H](Cc1ccccc1)NC(=O)[C@@H](NC(=O)CNC(=O)[C@H](CCC(=O)O)NC(=O)C(C)(C)NC(=O)[C@@H](N)Cc1ccc(O)cc1)[C@@H](C)O)[C@@H](C)O)C(=O)N[C@@H](Cc1ccc(O)cc1)C(=O)N[C@@H](CC(C)C)C(=O)N[C@@H](CCC(=O)O)C(=O)N[C@@H](CCCCNC(=O)[C@@H](N)CCCCNC(=O)[C@@H](N)CCCCNC(=O)CC[C@H](NC(=O)[C@H]1CC[C@H](CNC(=O)CCCCCCCCCCCCCCCCCCC(=O)O)CC1)C(=O)O)C(=O)N[C@@H](CCC(N)=O)C(=O)N[C@@H](C)C(=O)N[C@@H](C)C(=O)NC(C)(C)C(=O)N[C@@H](CCC(=O)O)C(=O)N[C@@H](Cc1ccccc1)C(=O)N[C@H](C(=O)N[C@@H](CC(N)=O)C(=O)N[C@@H](Cc1c[nH]c2ccccc12)C(=O)N[C@@H](CC(C)C)C(=O)N[C@@H](CC(C)C)C(=O)N[C@@H](C)C(=O)NCC(=O)NCC(=O)N1CCC[C@H]1C(=O)N[C@@H](CO)C(=O)N[C@@H](CO)C(=O)NCC(=O)N[C@@H](C)C(=O)N1CCC[C@H]1C(=O)N1CCC[C@H]1C(=O)N1CCC[C@H]1C(=O)N[C@@H](CO)C(N)=O)C(C)C [Compound 20] (H-Y[Aib]EGTFTSDYSIYLEK([εLys-εLys-γGlu-Trx-C20 diacid])QAA[Aib]EFVNWLLAGGPSSGAPPPS-NH2; N-terminus assumed)	3.67	0.012	2.6	0.0033	0.261	> 10	–	–
CC[C@H](C)[C@H](NC(=O)[C@H](CO)NC(=O)[C@H](Cc1ccc(O)cc1)NC(=O)[C@H](CC(=O)O)NC(=O)[C@H](CO)NC(=O)[C@@H](NC(=O)[C@H](Cc1ccccc1)NC(=O)[C@@H](NC(=O)CNC(=O)[C@H](CCC(=O)O)NC(=O)C(C)(C)NC(=O)[C@@H](N)Cc1ccc(O)cc1)[C@@H](C)O)[C@@H](C)O)C(=O)N[C@@H](Cc1ccc(O)cc1)C(=O)N[C@@H](CC(C)C)C(=O)N[C@@H](CCC(=O)O)C(=O)N[C@@H](CCC(=O)O)C(=O)N[C@@H](CCC(N)=O)C(=O)N[C@@H](C)C(=O)N[C@@H](C)C(=O)NC(C)(C)C(=O)N[C@@H](CCCCNC(=O)[C@@H](N)CCCCNC(=O)[C@@H](N)CCCCNC(=O)CC[C@H](NC(=O)CCCCCCCCCCCCCCCCCCC(=O)O)C(=O)O)C(=O)N[C@@H](Cc1ccccc1)C(=O)N[C@H](C(=O)N[C@@H](CC(N)=O)C(=O)N[C@@H](Cc1c[nH]c2ccccc12)C(=O)N[C@@H](CC(C)C)C(=O)N[C@@H](CC(C)C)C(=O)N[C@@H](C)C(=O)NCC(=O)NCC(=O)N1CCC[C@H]1C(=O)N[C@@H](CO)C(=O)N[C@@H](CO)C(=O)NCC(=O)N[C@@H](C)C(=O)N1CCC[C@H]1C(=O)N1CCC[C@H]1C(=O)N1CCC[C@H]1C(=O)N[C@@H](CO)C(N)=O)C(C)C [Compound 27] (H-Y[Aib]EGTFTSDYSIYLEEQAA[Aib]K([εLys-εLys-γGlu-C20 diacid])FVNWLLAGGPSSGAPPPS-NH2; N-terminus assumed)	–	0.545	4.2	0.0033	0.195	–	3.67	–
CC[C@H](C)[C@H](NC(=O)[C@H](CO)NC(=O)[C@H](Cc1ccc(O)cc1)NC(=O)[C@H](CC(=O)O)NC(=O)[C@H](CO)NC(=O)[C@@H](NC(=O)[C@H](Cc1ccccc1)NC(=O)[C@@H](NC(=O)CNC(=O)[C@H](CCC(=O)O)NC(=O)C(C)(C)NC(=O)[C@@H](N)Cc1ccc(O)cc1)[C@@H](C)O)[C@@H](C)O)C(=O)N[C@@H](Cc1ccc(O)cc1)C(=O)N[C@@H](CC(C)C)C(=O)N[C@@H](CCC(=O)O)C(=O)N[C@@H](CCCCN)C(=O)N[C@@H](CCCCNC(=O)[C@@H](N)CCCCNC(=O)[C@@H](N)CCCCNC(=O)CC[C@H](NC(=O)CCCCCCCCCCCCCCCCCCC(=O)O)C(=O)O)C(=O)N[C@@H](C)C(=O)N[C@@H](C)C(=O)NC(C)(C)C(=O)N[C@@H](CCC(=O)O)C(=O)N[C@@H](Cc1ccccc1)C(=O)N[C@H](C(=O)N[C@@H](CCC(N)=O)C(=O)N[C@@H](Cc1c[nH]c2ccccc12)C(=O)N[C@@H](CC(C)C)C(=O)N[C@@H](CC(C)C)C(=O)N[C@@H](CCC(=O)O)C(=O)NCC(=O)NCC(=O)N1CCC[C@H]1C(=O)N[C@@H](CO)C(=O)N[C@@H](CO)C(=O)NCC(=O)N[C@@H](C)C(=O)N1CCC[C@H]1C(=O)N1CCC[C@H]1C(=O)N1CCC[C@H]1C(=O)N[C@@H](CO)C(N)=O)C(C)C [Compound 35] (H-Y[Aib]EGTFTSDYSIYLEKK([εLys-εLys-γGlu-C20 diacid])AA[Aib]EFVQWLLEGGPSSGAPPPS-NH2; N-terminus assumed)	–	0.0213	1.3	0.0022	0.169	–	–	3.75

Reference: patent US20230346961A1, “GLP-1 AND GIP RECEPTOR CO-AGONISTS” (Novo Nordisk A/S, priority 2020, published 2023)
